{"source": "patent US12226379B2", "about": "“Highly sustainable compositions for modulation of gene expression in human skin, and methods of production thereof” (Visolis Technologies, Inc., priority 2022, dated 2025)", "type_in_all_cases": "cell-based", "key": {"[1]": {"tested_on": "normal human epidermal keratinocytes cells", "test": "Cortisol production test (conversion of cortisone to cortisol, Alpha LISA)", "details": "FIG. 13", "experimental": "Impact of MVL on metabolism, specifically cortisol production, was conducted on keratinocytes. Generally, 11β-HSD1 (Hydroxysteroid Dehydrogenase Type 1) converts costisone to cortisol, which then induces stress response. Impact of MVL on conversion of cortisone to cortisol was evaluated. Cortisol production tests were conducted on normal human epidermal keratinocytes cells. […] Negative control samples contained PBS only. Cortisol production was subsequently measured via the Alpha LISA system."}, "[2]": {"tested_on": "normal human epidermal keratinocytes (NHEKs) cells", "test": "Hyaluronic acid level in medium (ELISA, normalized to protein level)", "details": "FIG. 15; for increase in hyaluronic acid levels: 48 hours, p<0.05", "experimental": "Impact of MVL on hyaluronic acid, was conducted on keratinocytes. Hyaluronic acid is a crucial component of the skin. Impact of MVL on conversion of hyaluronic acid was evaluated. Hyaluronic acid tests were conducted on normal human epidermal keratinocytes (NHEKs) cells. Test samples contained 0-0.25% of highly sustainable, high-purity MVL by weight in a phosphate-buffered saline (PBS) solution. Negative control samples contained PBS only. Hyaluronic acid level in the medium was subsequently measured at 24 hours and 48 hours via ELISA and normalized to the protein level in the NHEK cells."}, "[3]": {"tested_on": "EpiSkin-LM 3-dimensional in-vitro human skin model", "test": "Gene expression test (DNA microarray, mRNA) on the EpiSkin-LM reconstructed 3D skin model", "experimental": "Gene expression tests were conducted on EpiSkin-LM™, a commercially available 3-dimensional in-vitro human skin model composed of normal human skin cells in a collagen matrix. Test samples contained either 0.5% or 1.0% of highly sustainable, high-purity MVL by weight in a phosphate-buffered saline (PBS) solution. Negative control samples contained PBS only.\nReconstructed 3D skin epidermal models (EpiSkin-LM™) were pre-incubated with 5 mL of maintenance medium for 24 hours per manufacturer instruction. 2 mL of the test samples or negative controls were applied on the top of the epidermis. The treated models were incubated for 24 hours. After incubation, the models were rinsed with PBS, then treated again with 2 mL test samples or the negative control and incubated an additional 24 hours.\nAfter the second incubation, mRNA was extracted from the models by miRNeasy® Mini Kit (QIAGEN). mRNA expression level in the model was measured by a Genopal® DNA microarray chip. Modulation of gene expression level was expressed as the ratio of mRNA transcripts in the test-sample treated models to mRNA transcripts in the negative control models. Positive numbers indicated an increase in gene expression, and negative numbers indicated a decrease in gene expression relative to the negative control."}, "[4]": {"details": "compositions containing 0.1 to 1.0 weight percent, human epithelial cells"}}, "data": [{"molecule": "C[C@@]1(O)CCOC(=O)C1", "note": "[MVL, R-mevalonolactone]", "values": [{"measurement": "conversion of cortisone to cortisol", "setting": "[1]; 0.125-0.5% by weight, higher concentrations give larger decline in cortisol levels", "result": "potently modulates"}, {"measurement": "reduction of cortisol production", "setting": "[1]; 0.5% concentration in PBS with cortisone", "result": "over 15%"}, {"measurement": "increase in hyaluronic acid levels", "setting": "[2]; 0.13% concentration", "result": "over 5%"}, {"measurement": "hyaluronic acid levels", "setting": "[2]; 0.13-0.25% by weight, higher concentrations give higher hyaluronic acid levels", "result": "potently modulates"}, {"measurement": "increase in hyaluronic acid levels", "setting": "[2]; 0.25% concentration", "result": "over 5%"}, {"measurement": "decrease in gene expression level relative to negative control (MMP1, MMP2, MMP3, MMP7, MMP9, NFATC1, IL1A, IL1B, TNFA, SELE, SELL, EDN1, EDN2, EDN3, PTGS2 (COX2), POMC)", "setting": "[3]; 1.0% by weight in PBS, two 24 h treatments, genes of extracellular matrix degradation, inflammation, skin pigmentation (FIGS. 6-8)", "result": "at least 10%"}, {"measurement": "decrease in expression of genes related to ECM degradation, inflammation and pigmentation", "setting": "[3]; [4]", "result": "at least 10%"}, {"measurement": "increase in expression of genes related to epithelial turnover, hyaluronic acid synthesis, barrier function and anti-aging elasticity", "setting": "[3]; [4]", "result": "at least 10%"}]}]}
